In US20250333410A1, “COMPOUND FOR INHIBITING OR DEGRADING BCL6 AND USE THEREOF IN PHARMACEUTICS” (XIZANG HAISCO PHARMACEUTICAL CO., LTD., priority 2022, published 2025):

Assays:
Bcl6 = Bcl6 (Homo sapiens (Human), UniProt P41182); test: Bcl-6 protein degradation experiment in Farage cells; format: cell-based; conditions: 24 hours
Procedure: 2. Bcl-6 Protein Degradation Experiment in Farage Cells
Farage cells purchased from ATCC were placed in an RPMI-1640 complete medium (containing 10% fetal bovine serum, 100 U/mL penicillin and 100 μg/mL streptomycin) and cultured at 37° C. and 5% CO2. The cells in the logarithmic growth phase were collected, and the cell suspension was adjusted to an appropriate density with the culture medium and added to a 6-well cell culture plate at a volume of 1 mL/well. The compounds to be tested were prepared to 2-fold the final concentration, 1 mL of the compounds at different concentrations were added to administration wells, a medium containing 0.2% DMSO was added to control wells, and the plate was incubated at 37° C. for 24 hours. The cells were collected into a 1.5 mL centrifuge tube, 25 μL of RIPA lysis buffer (containing 1× protease inhibitor cocktail) was added, and the cells were lysed on ice for 15 minutes and centrifuged at 12000 rpm/min at 4° C. for 10 minutes. The supernatant was collected and the protein content was determined using the BCA method. The protein sample to be tested was diluted to 0.8 mg/mL, Bcl6 was detected using a fully automated protein expression quantitative analyzer (ProteinSimple), and the internal reference protein was R-actin (both antibodies were from CST). The software (Compass for SW) of the fully automated protein expression quantitative analyzer was used to process the raw data and calculate the peak area and the Bcl6 expression rate relative to the control group. DC50 values were calculated using a four-parameter non-linear fitting model in Graphpad 8.3.0 software.

[1] = Pharmacokinetic test in mice; format: in vivo, ICR mice; conditions: i.g. 5 mg/kg; for AUC(0-t): male, ICR, mouse, po, mice plasma
Procedure: 3. Pharmacokinetic Test in Mice
1.1 Experimental animal: male ICR mice, 25-30 g, 6 mice/compound, purchased from Chengdu Ddossy Experimental Animals Co., Ltd.
1.2 Experimental design: on the day of the experiment, the ICR mice were randomly grouped according to their body weights. The animals were fasted but with water available for 12 to 14 h one day before the administration, and were fed 4 h after the administration.

Row | Compound | DC50 (Bcl6) [nM] | AUC(0-t) [1] [ng·h/mL] | F ([1]; mice) [%]
1 | CNC(=O)COc1cc2cc(Nc3nc(N4CCC(CN5CCN(c6cccc7c6n(C)c(=O)n7C6CCC(=O)NC6=O)CC5)CC4)ncc3Cl)ccc2n(C)c1=O (stereo not shown) [Compound 9] | < 10 | – | –
2 | CC(=O)COc1cc2cc(Nc3nc(N4CCC(CN5CCN(c6cccc7c6n(C)c(=O)n7C6CCC(=O)NC6=O)CC5)CC4)ncc3Cl)ccc2n(C)c1=O (stereo not shown) [Compound 10] | < 10 | – | –
3 | CNC(=O)COc1cc2cc(Nc3nc(N4CCN(CC5CCN(Cc6cccc7c6n(C)c(=O)n7C6CCC(=O)NC6=O)CC5)CC4)ncc3Cl)ccc2n(C)c1=O (stereo not shown) [Compound 12] | < 10 | – | –
4 | CC(=O)COc1cc2cc(Nc3nc(N4CCN(CC5CCN(c6cc(F)c(C7CCC(=O)NC7=O)c(F)c6)CC5)CC4)ncc3Cl)ccc2n(C)c1=O (stereo not shown) [Compound 22] | < 10 | – | –
5 | CNC(=O)COc1cc2cc(Nc3nc(N4CCN(CC5CCN(c6ccc(C7CCC(=O)NC7=O)cn6)CC5)CC4)ncc3Cl)ccc2n(C)c1=O (stereo not shown) [Compound 39] | < 10 | – | –
6 | [2H]C([2H])([2H])NC(=O)COc1cc2cc(Nc3nc(N4CCN(CC5CCN(c6ccc(C7CCC(=O)NC7=O)cc6)CC5)CC4)ncc3Cl)ccc2n(C)c1=O (stereo not shown) [Compound 47] | < 10 | – | –
7 | C#CCn1c(=O)c(OCC(=O)NC)cc2cc(Nc3nc(N4CCC(CN5CCN6c7ccc(C8CCC(=O)NC8=O)cc7CCC6C5)CC4)ncc3Cl)ccc21 (stereo not shown) [Compound 50] | < 10 | – | –
8 | CNC(=O)COc1cc2cc(Nc3nc(N4CCC(CN5CCN6c7ccc(C8CCC(=O)NC8=O)cc7CCC6C5)CC4)ncc3Cl)ccc2n(C2CC2)c1=O (stereo not shown) [Compound 51] | < 10 | – | –
9 | CNC(=O)COc1cc2cc(Nc3nc(N4CCC(O[C@H]5C[C@H](N6CCN(c7ccc(C8CCC(=O)NC8=O)cc7)CC6)C5)CC4)ncc3Cl)ccc2n(C(C)C)c1=O (stereo partly shown) [Compound 95] | < 10 | – | –
10 | CNC(=O)COc1cc2cc(Nc3nc(N4CCC(O[C@H]5C[C@H](N6CCN(c7ccc(C8CCC(=O)NC8=O)c(F)c7)CC6)C5)CC4)ncc3Cl)ccc2n(C(C)C)c1=O (stereo partly shown) [Compound 96] | < 10 | – | –
11 | CNC(=O)COc1cc2cc(Nc3nc(N4CCN(CC5CCN(c6cccc7c6C(=O)N(C6CCC(=O)NC6=O)C7=O)CC5)CC4)ncc3Cl)ccc2n(C)c1=O (stereo not shown) [Control compound 1, reference compound] | – | < 100 | <5
12 | CC(=O)COc1cc2cc(Nc3nc(N4CCC(N5CCN(c6ccc(NC7CCC(=O)NC7=O)cc6F)CC5)C(F)(F)C4)ncc3Cl)ccc2n(C)c1=O (stereo not shown) [Trifluoroacetate of compound 5] | < 10 | – | –
13 | CNC(=O)COc1cc2cc(Nc3nc(N4CCC(N5CCN(c6ccc(NC7CCC(=O)NC7=O)cc6F)CC5)C(F)(F)C4)ncc3Cl)ccc2n(C)c1=O (stereo not shown) [Trifluoroacetate of compound 7] | < 10 | – | –
14 | CNC(=O)COc1cc2cc(Nc3nc(N4CCC(N(C)C5CCN(c6cccc7c6n(C)c(=O)n7C6CCC(=O)NC6=O)CC5)CC4)ncc3Cl)ccc2n(C)c1=O (stereo not shown) [Trifluoroacetate of compound 11] | < 10 | – | –
15 | CC(=O)COc1cc2cc(Nc3nc(N4CCC(CN5CCN(c6ccc(C7CCC(=O)NC7=O)cc6)CC5)CC4)ncc3Cl)ccc2n(C)c1=O (stereo not shown) [Trifluoroacetate of compound 13] | < 10 | > 1000 | –
16 | CNC(=O)COc1cc2cc(Nc3nc(N4CCC(CN5CCN(c6ccc(C7CCC(=O)NC7=O)cc6)CC5)CC4)ncc3Cl)ccc2n(C)c1=O (stereo not shown) [Trifluoroacetate of compound 14] | < 10 | > 1000 | –
17 | CC(=O)COc1cc2cc(Nc3nc(N4CCN(c5ccc(C6CCC(=O)NC6=O)cc5)CC4)ncc3Cl)ccc2n(C)c1=O (stereo not shown) [Trifluoroacetate of compound 17] | < 10 | – | –
18 | CNC(=O)COc1cc2cc(Nc3nc(N4CCN(c5ccc(C6CCC(=O)NC6=O)cc5)CC4)ncc3Cl)ccc2n(C)c1=O (stereo not shown) [Trifluoroacetate of compound 20] | < 10 | – | –
19 | CNC(=O)COc1cc2cc(Nc3nc(N4CCN(CC5CN(c6ccc(C7CCC(=O)NC7=O)cc6F)C5)CC4)ncc3Cl)ccc2n(C)c1=O (stereo not shown) [Trifluoroacetate of compound 40] | < 10 | – | –
20 | CNC(=O)COc1cc2cc(Nc3nc(N4CCN(CC5CCN(c6ccc(C7CCC(=O)NC7=O)cc6F)CC5)CC4)ncc3Cl)ccc2n(C)c1=O (stereo not shown) [Trifluoroacetate of compound 41] | < 10 | – | –

Row | Compound | DC50 (Bcl6) [nM] | AUC(0-t) [1] [ng·h/mL] | F ([1]; mice) [%]
21 | CNC(=O)COc1cc2cc(Nc3nc(N4CCN(CC5CCN(c6ccc(C7CCC(=O)NC7=O)cc6)CC5)CC4)ncc3Cl)ccc2n(C(C)C)c1=O (stereo not shown) [Trifluoroacetate of compound 42] | < 10 | – | –
22 | C#CCn1c(=O)c(OCC(=O)NC)cc2cc(Nc3nc(N4CCN(CC5CCN(c6ccc(C7CCC(=O)NC7=O)c(F)c6)CC5)CC4)ncc3Cl)ccc21 (stereo not shown) [Trifluoroacetate of compound 52] | < 10 | – | –
23 | CNC(=O)COc1cc2cc(Nc3nc(N4CCN(CC5CCN(c6ccc(C7CCC(=O)NC7=O)c(F)c6)CC5)CC4)ncc3Cl)ccc2n(C2CC2)c1=O (stereo not shown) [Trifluoroacetate of compound 53] | < 10 | – | –
24 | CNC(=O)COc1cc2cc(Nc3nc(N4CCC(CN5CCN6c7ccc(C8CCC(=O)NC8=O)cc7CCC6C5)CC4)ncc3Cl)ccc2n(C(C)C)c1=O (stereo not shown) [Trifluoroacetate of compound 54] | < 10 | – | –
25 | CNC(=O)COc1cc2cc(Nc3nc(N4CCN(CC5CCN(c6cccc(C7CCC(=O)NC7=O)c6)CC5)CC4)ncc3Cl)ccc2n(C)c1=O (stereo not shown) [Trifluoroacetate of compound 55] | < 10 | – | –
26 | CNC(=O)COc1cc2cc(Nc3nc(N4CCC(CN5CCN6c7cc(F)c(C8CCC(=O)NC8=O)cc7CC[C@@H]6C5)CC4)ncc3Cl)ccc2n(C(C)C)c1=O (stereo partly shown) [Trifluoroacetate of compound 56] | < 10 | > 1000 | –
27 | CCn1c(=O)c(OCC(=O)NC)cc2cc(Nc3nc(N4CCC(O[C@H]5C[C@H](N6CCN7c8cc(F)c(C9CCC(=O)NC9=O)cc8CC[C@H]7C6)C5)CC4)ncc3Cl)ccc21 (stereo partly shown) [Trifluoroacetate of compound 61] | < 10 | – | –
28 | CCn1c(=O)c(OCC(=O)NC)cc2cc(Nc3nc(N4CCN(CC5CCN(c6ccc(C7CCC(=O)NC7=O)c(F)c6)CC5)CC4)ncc3Cl)ccc21 (stereo not shown) [Trifluoroacetate of compound 68] | < 10 | – | –
29 | CCn1c(=O)c(OCC(=O)NC)cc2cc(Nc3nc(N4CCN(CC5CCN(c6ccc(C7CCC(=O)NC7=O)cc6)CC5)CC4)ncc3Cl)ccc21 (stereo not shown) [Trifluoroacetate of compound 69] | < 10 | – | –
30 | CNC(=O)COc1cc2cc(Nc3nc(N4CCC(O[C@H]5C[C@H](N6CCN7c8cc(F)c(C9CCC(=O)NC9=O)cc8CC[C@@H]7C6)C5)CC4)ncc3Cl)ccc2n(C(C)C)c1=O (stereo partly shown) [Trifluoroacetate of compound 70] | < 10 | – | –
31 | [2H]C([2H])([2H])NC(=O)COc1cc2cc(Nc3nc(N4CCC(O[C@H]5C[C@H](N6CCN7c8cc(F)c(C9CCC(=O)NC9=O)cc8CC[C@H]7C6)C5)CC4)ncc3Cl)ccc2n(C(C)C)c1=O (stereo partly shown) [Trifluoroacetate of compound 84] | < 10 | – | –
32 | [2H]C([2H])([2H])NC(=O)COc1cc2cc(Nc3nc(N4CCC(CN5CCN6c7cc(F)c(C8CCC(=O)NC8=O)cc7CC[C@H]6C5)CC4)ncc3Cl)ccc2n(C(C)C)c1=O (stereo partly shown) [Trifluoroacetate of compound 85] | < 10 | – | –
33 | [2H]C([2H])([2H])n1c(=O)c(OCC(=O)NC)cc2cc(Nc3nc(N4CCC(O[C@H]5C[C@H](N6CCN7c8cc(F)c(C9CCC(=O)NC9=O)cc8CC[C@@H]7C6)C5)CC4)ncc3Cl)ccc21 (stereo partly shown) [Trifluoroacetate of compound 90] | < 10 | – | –
34 | [2H]C([2H])([2H])NC(=O)COc1cc2cc(Nc3nc(N4CCC(O[C@H]5C[C@H](N6CCN7c8cc(F)c(C9CCC(=O)NC9=O)cc8CC[C@@H]7C6)C5)CC4)ncc3Cl)ccc2n(C([2H])([2H])[2H])c1=O (stereo partly shown) [Trifluoroacetate of compound 91] | < 10 | – | –
35 | [2H]C([2H])([2H])NC(=O)COc1cc2cc(Nc3nc(N4CCC(O[C@H]5C[C@H](N6CCN7c8cc(F)c(C9CCC(=O)NC9=O)cc8CC[C@@H]7C6)C5)CC4)ncc3Cl)ccc2n(C)c1=O (stereo partly shown) [Trifluoroacetate of compound 92] | < 10 | – | –
36 | [2H]C([2H])([2H])NC(=O)COc1cc2cc(Nc3nc(N4CCC(O[C@H]5C[C@H](N6CCN7c8cc(F)c(C9CCC(=O)NC9=O)cc8CC[C@@H]7C6)C5)CC4)ncc3Cl)ccc2n(C(C)C)c1=O (stereo partly shown) [Trifluoroacetate of compound 93] | < 10 | – | –
37 | CNC(=O)COc1cc2cc(Nc3nc(N4CCC(F)(CN5CCN6c7cc(F)c(C8CCC(=O)NC8=O)cc7CC[C@H]6C5)CC4)ncc3Cl)ccc2n(C(C)C)c1=O (stereo partly shown) [Trifluoroacetate of compound 94] | < 10 | – | –
38 | CNC(=O)COc1cc2cc(Nc3nc(N4CCC(F)(CN5CCN6c7cc(F)c(C8CCC(=O)NC8=O)cc7CC[C@@H]6C5)CC4)ncc3Cl)ccc2n(C(C)C)c1=O (stereo partly shown) [Trifluoroacetate of compound 98] | < 10 | – | –
39 | CNC(=O)COc1cc2cc(Nc3nc(N4CC[C@H](O[C@H]5C[C@H](N6CCN7c8cc(F)c(C9CCC(=O)NC9=O)cc8CC[C@H]7C6)C5)[C@@H](F)C4)ncc3Cl)ccc2n(C(C)C)c1=O (stereo partly shown) [Trifluoroacetate of compound 109] | < 10 | – | –
